Results published in ChEMBL document CHEMBL1909046, “DrugMatrix in vitro pharmacology data”.
Where a SMILES comes first, the peptide text is derived from it. Bridges are numbered along the chain shown (N, C = ends). [ ]: non-standard residue; d: D form. The star is where a group is joined. Threoninol(2S,3R) = C[C@@H](O)[C@H](CO)N*

What was measured:
[1] = biological target: T1, Alpha-1A adrenergic receptor (Rattus norvegicus, UniProt P43140); test: DRUGMATRIX: Alpha-1A adrenergic receptor radioligand binding (ligand: prazosin); type: cell membranes, Wistar, Submaxillary gland, Membrane; conditions: Not Active = under 50% inhibition at 10 µM
T1 sequence (P43140 whole entry): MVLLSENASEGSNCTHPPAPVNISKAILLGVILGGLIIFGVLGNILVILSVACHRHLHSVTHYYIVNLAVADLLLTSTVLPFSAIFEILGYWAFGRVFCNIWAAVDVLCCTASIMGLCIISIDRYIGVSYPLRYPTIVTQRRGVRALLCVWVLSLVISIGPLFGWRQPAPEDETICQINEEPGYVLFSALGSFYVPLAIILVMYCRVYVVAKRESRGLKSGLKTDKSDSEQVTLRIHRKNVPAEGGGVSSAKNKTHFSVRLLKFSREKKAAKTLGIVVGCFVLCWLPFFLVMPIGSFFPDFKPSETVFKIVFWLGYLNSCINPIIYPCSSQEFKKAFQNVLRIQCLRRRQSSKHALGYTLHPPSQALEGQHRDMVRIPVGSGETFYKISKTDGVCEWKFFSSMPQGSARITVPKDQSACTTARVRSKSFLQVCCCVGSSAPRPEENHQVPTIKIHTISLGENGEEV

[2] = biological target: T2, Alpha-2C adrenergic receptor (Homo sapiens, UniProt P18825); test: DRUGMATRIX: Adrenergic Alpha-2C radioligand binding (ligand: [3H] MK-912); type: cell membranes, Sf9, Membrane
T2 sequence (P18825 whole entry): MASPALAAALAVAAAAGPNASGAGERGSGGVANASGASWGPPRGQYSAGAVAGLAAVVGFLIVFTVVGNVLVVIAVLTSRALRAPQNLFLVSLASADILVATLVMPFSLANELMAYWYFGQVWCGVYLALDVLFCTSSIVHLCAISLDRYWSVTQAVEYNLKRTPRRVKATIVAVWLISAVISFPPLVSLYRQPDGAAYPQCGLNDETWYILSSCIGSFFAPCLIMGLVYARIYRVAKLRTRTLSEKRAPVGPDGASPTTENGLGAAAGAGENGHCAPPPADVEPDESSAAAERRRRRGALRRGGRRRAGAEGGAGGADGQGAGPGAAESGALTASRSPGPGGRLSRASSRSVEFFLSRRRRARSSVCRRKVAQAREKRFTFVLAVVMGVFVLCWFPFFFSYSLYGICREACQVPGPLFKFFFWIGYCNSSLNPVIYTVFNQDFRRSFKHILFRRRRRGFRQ

[3] = DRUGMATRIX: Tumor Necrosis Factor (TNF), Non-Selective radioligand binding (ligand: [125I] TNF-alpha); type: cell membranes, Membrane; conditions: u-937; Not Active = under 50% inhibition at 10 µM
Vasopressin V1a receptor = Vasopressin V1a receptor (Homo sapiens, UniProt P37288); type: cell membranes, Membrane; conditions: hek293; further: in other assays of this panel Not Active means under 50% inhibition at 10 µM
Sequence of Vasopressin V1a receptor (P37288 whole entry): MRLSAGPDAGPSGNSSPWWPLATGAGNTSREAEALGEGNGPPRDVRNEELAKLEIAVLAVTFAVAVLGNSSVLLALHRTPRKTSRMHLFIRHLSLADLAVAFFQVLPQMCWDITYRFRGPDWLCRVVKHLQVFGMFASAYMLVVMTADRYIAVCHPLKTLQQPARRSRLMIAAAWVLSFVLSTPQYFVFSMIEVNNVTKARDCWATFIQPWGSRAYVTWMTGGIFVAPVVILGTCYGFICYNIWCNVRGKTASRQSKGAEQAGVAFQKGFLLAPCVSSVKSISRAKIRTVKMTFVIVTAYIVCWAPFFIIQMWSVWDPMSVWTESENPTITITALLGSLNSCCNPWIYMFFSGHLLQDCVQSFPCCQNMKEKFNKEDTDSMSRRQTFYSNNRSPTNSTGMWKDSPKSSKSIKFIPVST

[4] = DRUGMATRIX: Leukotriene, BLT (LTB4) radioligand binding (ligand: [3H]LTB4); type: cell membranes, Membrane; conditions: u-937; Not Active = under 50% inhibition at 10 µM
[5] = biological target: T3, Amine oxidase [flavin-containing] A (Homo sapiens, UniProt P21397); test: DRUGMATRIX: Monoamine Oxidase MAO-A enzyme inhibition (substrate: Kynuramine); design: species or system BTI-TN-5B1-4; conditions: Not Active = under 50% inhibition at 10 µM
T3 sequence (P21397 whole entry): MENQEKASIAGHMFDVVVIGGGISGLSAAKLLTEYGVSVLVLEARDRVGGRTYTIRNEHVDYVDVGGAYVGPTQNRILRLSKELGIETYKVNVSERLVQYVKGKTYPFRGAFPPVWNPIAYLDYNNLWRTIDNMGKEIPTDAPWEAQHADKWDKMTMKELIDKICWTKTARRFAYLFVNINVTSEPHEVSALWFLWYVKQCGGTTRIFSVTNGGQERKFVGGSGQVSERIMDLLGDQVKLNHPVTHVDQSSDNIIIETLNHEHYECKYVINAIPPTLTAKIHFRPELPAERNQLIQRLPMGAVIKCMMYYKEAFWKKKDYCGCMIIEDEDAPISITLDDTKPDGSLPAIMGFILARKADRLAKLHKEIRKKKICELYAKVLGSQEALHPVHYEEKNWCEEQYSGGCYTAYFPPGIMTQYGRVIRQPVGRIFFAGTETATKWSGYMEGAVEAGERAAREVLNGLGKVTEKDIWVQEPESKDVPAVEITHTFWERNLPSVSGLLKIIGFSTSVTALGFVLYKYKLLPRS

Adenosine receptor A3 = biological target: T4, Adenosine receptor A3 (Homo sapiens, UniProt P0DMS8); type: cell membranes, CHO-K1, Membrane;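 further: radioligand binding assay with AB-MECA serving as the labeled ligand; in other assays of this panel Not Active means under 50% inhibition at 10 µM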
T4 sequence (P0DMS8 whole entry): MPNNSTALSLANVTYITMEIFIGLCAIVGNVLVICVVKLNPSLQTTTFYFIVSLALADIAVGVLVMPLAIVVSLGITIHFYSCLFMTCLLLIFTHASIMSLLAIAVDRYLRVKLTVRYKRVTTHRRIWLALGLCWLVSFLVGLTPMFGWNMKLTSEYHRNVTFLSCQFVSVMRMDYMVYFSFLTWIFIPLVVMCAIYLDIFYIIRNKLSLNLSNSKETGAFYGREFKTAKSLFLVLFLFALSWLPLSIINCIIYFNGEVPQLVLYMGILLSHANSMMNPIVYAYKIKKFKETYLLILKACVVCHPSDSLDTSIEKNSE

SMILES	IC50 [1]	IC50 ([2]; sf9)	IC50 [3]	Ki [3]	IC50 (Vasopressin V1a receptor)	IC50 [4]	Ki [4]	IC50 ([5]; bti-tn-5b1-4)	IC50 (Adenosine receptor A3; cho-k1)	IC50 ([2]; read-out: IC50) [µM]	Ki ([2]; read-out: Ki) [µM]	IC50 ([5]; read-out: IC50) [µM]	IC50 (Adenosine receptor A3; read-out: IC50) [µM]	Ki (Adenosine receptor A3; read-out: Ki) [µM]	Ki [1]	Ki ([2]; sf9)	Ki (Vasopressin V1a receptor)	Ki ([5]; bti-tn-5b1-4)	Ki (Adenosine receptor A3; cho-k1)
COc1ccccc1C(=O)N1CCC(Cc2ccccc2)CC1	Not Active	Not Active	Not Active	Not Active	Not Active	Not Active	Not Active	Not Active	Not Active	–	–	–	–	–	–	–	–	–	–
Cc1ccccc1C(=O)N1CCC(Cc2ccccc2)CC1	Not Active	Not Active	Not Active	Not Active	Not Active	Not Active	Not Active	Not Active	Not Active	–	–	–	–	–	–	–	–	–	–
O=C1CC[C@H](N2C(=O)c3ccccc3C2=O)C(=O)N1	Not Active	Not Active	Not Active	Not Active	Not Active	Not Active	Not Active	Not Active	Not Active	–	–	–	–	–	–	–	–	–	–
N=C(Nc1ccccc1)Nc1ccccc1	Not Active	Not Active	Not Active	Not Active	Not Active	Not Active	Not Active	Not Active	Not Active	–	–	–	–	–	–	–	–	–	–
C[C@@H](O)[C@H](CO)NC(=O)[C@@H]1CSSC[C@H](NC(=O)[C@H](N)Cc2ccccc2)C(=O)N[C@@H](Cc2ccccc2)C(=O)N[C@H](Cc2c[nH]c3ccccc23)C(=O)N[C@@H](CCCCN)C(=O)N[C@@H]([C@@H](C)O)C(=O)N1 (H-[dF]CF[dW]KTC-{Threoninol(2S,3R)}; disulfide 2-7)	Not Active	Not Active	Not Active	Not Active	Not Active	Not Active	Not Active	Not Active	Not Active	–	–	–	–	–	–	–	–	–	–
S=C=Nc1cccc2ccccc12 [1-NAPHTHYLISOTHIOCYANATE]	Not Active	–	Not Active	Not Active	Not Active	Not Active	Not Active	–	–	54.5	7.92	22.4	6.1	3.45	–	–	–	–	–
C[C@](O)(CS(=O)(=O)c1ccc(F)cc1)C(=O)Nc1ccc(C#N)c(C(F)(F)F)c1 [(R)-BICALUTAMIDE]	Not Active	Not Active	Not Active	Not Active	Not Active	Not Active	Not Active	Not Active	Not Active	–	–	–	–	–	–	–	–	–	–
CCCC(=O)Nc1ccc(OCC(O)CNC(C)C)c(C(C)=O)c1 (stereo not given) [ACEBUTOLOL]	Not Active	Not Active	Not Active	Not Active	Not Active	Not Active	Not Active	Not Active	Not Active	–	–	–	–	–	–	–	–	–	–
CC(=O)Nc1ccc(O)cc1 [ACETAMINOPHEN]	Not Active	Not Active	Not Active	Not Active	Not Active	Not Active	Not Active	Not Active	Not Active	–	–	–	–	–	–	–	–	–	–
COc1cc2c(c3oc(=O)c4c(c13)CCC4=O)[C@@H]1C=CO[C@@H]1O2 [AFLATOXIN]	Not Active	Not Active	Not Active	Not Active	Not Active	Not Active	Not Active	Not Active	Not Active	–	–	–	–	–	Not Active	Not Active	Not Active	Not Active	Not Active
N=C(N)NC(=O)c1nc(Cl)c(N)nc1N [AMILORIDE]	Not Active	Not Active	Not Active	Not Active	Not Active	Not Active	Not Active	–	Not Active	–	–	3.91	–	–	–	–	–	–	–
Cc1cc(=O)n(-c2ccccc2)n1C [ANTIPYRINE]	Not Active	Not Active	Not Active	Not Active	Not Active	Not Active	Not Active	Not Active	Not Active	–	–	–	–	–	–	–	–	–	–
CN1C(=O)COc2c(C(=O)NC3CN4CCC3CC4)cc(Cl)cc21 (stereo not given) [AZASETRON]	Not Active	Not Active	Not Active	Not Active	Not Active	Not Active	Not Active	Not Active	Not Active	–	–	–	–	–	–	–	–	–	–
C[C@H]1C[C@H]2[C@@H]3CCC4=CC(=O)C=C[C@]4(C)[C@@]3(Cl)[C@@H](O)C[C@]2(C)[C@@]1(O)C(=O)CO [BECLOMETHASONE]	Not Active	Not Active	Not Active	Not Active	Not Active	Not Active	Not Active	Not Active	Not Active	–	–	–	–	–	–	–	–	–	–
CCOC(=O)[C@H](CCc1ccccc1)N[C@H]1CCc2ccccc2N(CC(=O)O)C1=O [BENAZEPRIL]	Not Active	Not Active	Not Active	Not Active	Not Active	Not Active	Not Active	Not Active	Not Active	–	–	–	–	–	–	–	–	–	–
Nc1c(CC(=O)O)cccc1C(=O)c1ccc(Br)cc1 [BROMFENAC]	Not Active	Not Active	Not Active	Not Active	Not Active	Not Active	Not Active	Not Active	Not Active	–	–	–	–	–	–	–	–	–	–
CCCCN1CCCCC1C(=O)Nc1c(C)cccc1C.Cl (stereo not given) [BUPIVACAINE HYDROCHLORIDE]	Not Active	Not Active	Not Active	Not Active	Not Active	Not Active	Not Active	Not Active	Not Active	–	–	–	–	–	–	–	–	–	–
O=C1CC2(CCCC2)CC(=O)N1CCCCN1CCN(c2ncccn2)CC1 [BUSPIRONE]	–	Not Active	Not Active	Not Active	Not Active	Not Active	Not Active	Not Active	Not Active	–	–	–	–	–	–	–	–	–	–
C[C@@]12C(=O)OC(=O)[C@]1(C)[C@H]1CC[C@@H]2O1 [CANTHARIDIN]	Not Active	Not Active	Not Active	Not Active	Not Active	Not Active	Not Active	Not Active	Not Active	–	–	–	–	–	–	–	–	–	–
O=NN(CCCl)C(=O)NCCCl [CARMUSTINE]	Not Active	Not Active	Not Active	Not Active	Not Active	Not Active	Not Active	Not Active	Not Active	–	–	–	–	–	–	–	–	–	–
CC1=C(C(=O)O)N2C(=O)[C@@H](NC(=O)[C@H](N)c3ccccc3)[C@H]2SC1 [CEPHALEXIN ANHYDROUS]	Not Active	Not Active	Not Active	Not Active	Not Active	Not Active	Not Active	Not Active	Not Active	–	–	–	–	–	–	–	–	–	–
